Tests used:
[1] = biological target: 5-hydroxytryptamine receptor 2A (Homo sapiens) (UniProt P28223); settings: Compound concentration 10.0 uM
[2] = biological target: Serine/threonine-protein kinase PAK 3 (Homo sapiens) (UniProt O75914); assay: PAK3(h) Millipore kinase panel; settings: Compound concentration 1.0 uM
Homo sapiens = species on record: Homo sapiens; assay: Cdc7/cyclinB(h) Millipore kinase panel; settings: Compound concentration 1.0 uM
[3] = biological target: Cyclin-dependent kinase 14/Cyclin-Y (Homo sapiens) (UniProt O94921+Q8ND76); assay: CDK14/cyclinY(h) Millipore kinase panel; type: protein-complex assay; settings: Compound concentration 1.0 uM
[4] = biological target: T1, Alpha-2C adrenergic receptor (Homo sapiens) (UniProt P18825); settings: Compound concentration 10.0 uM
T1 sequence (whole entry): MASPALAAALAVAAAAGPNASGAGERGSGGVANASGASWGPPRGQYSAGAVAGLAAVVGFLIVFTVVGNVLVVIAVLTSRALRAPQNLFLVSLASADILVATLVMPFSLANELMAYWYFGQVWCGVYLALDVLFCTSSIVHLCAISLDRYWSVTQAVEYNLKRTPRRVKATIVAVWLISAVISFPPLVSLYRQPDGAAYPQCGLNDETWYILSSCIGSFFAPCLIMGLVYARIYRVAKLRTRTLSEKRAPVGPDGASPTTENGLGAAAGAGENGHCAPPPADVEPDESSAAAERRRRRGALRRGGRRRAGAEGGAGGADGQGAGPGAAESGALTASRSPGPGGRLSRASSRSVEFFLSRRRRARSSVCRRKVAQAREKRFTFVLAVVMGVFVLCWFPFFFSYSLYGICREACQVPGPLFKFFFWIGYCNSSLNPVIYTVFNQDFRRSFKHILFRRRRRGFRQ

[5] = biological target: MAP kinase-activated protein kinase 2 (Homo sapiens) (UniProt P49137); assay: MAPKAP-K2(h) Millipore kinase panel; settings: Compound concentration 1.0 uM
[6] = biological target: cAMP-dependent protein kinase catalytic subunit beta (Homo sapiens) (UniProt P22694); assay: PKACbeta(h) Millipore kinase panel; settings: Compound concentration 1.0 uM
[7] = biological target: Activin receptor type-1-like (Homo sapiens) (UniProt P37023); assay: ALK1(h) Millipore kinase panel; settings: Compound concentration 1.0 uM
[8] = biological target: Rhodopsin kinase GRK7 (Homo sapiens) (UniProt Q8WTQ7); assay: GRK7(h) Millipore kinase panel; settings: Compound concentration 1.0 uM
[9] = biological target: D(2) dopamine receptor (Homo sapiens) (UniProt P14416); settings: Compound concentration 10.0 uM
[10] = biological target: LIM domain kinase 2 (Homo sapiens) (UniProt P53671); assay: LIMK2(h) Millipore kinase panel; settings: Compound concentration 1.0 uM
[11] = biological target: Serine/threonine-protein kinase 3 (Homo sapiens) (UniProt Q13188); assay: MST2(h) Millipore kinase panel; settings: Compound concentration 1.0 uM
[12] = biological target: T2, 5-hydroxytryptamine receptor 1A (Homo sapiens) (UniProt P08908); settings: Compound concentration 10.0 uM
T2 sequence (whole entry): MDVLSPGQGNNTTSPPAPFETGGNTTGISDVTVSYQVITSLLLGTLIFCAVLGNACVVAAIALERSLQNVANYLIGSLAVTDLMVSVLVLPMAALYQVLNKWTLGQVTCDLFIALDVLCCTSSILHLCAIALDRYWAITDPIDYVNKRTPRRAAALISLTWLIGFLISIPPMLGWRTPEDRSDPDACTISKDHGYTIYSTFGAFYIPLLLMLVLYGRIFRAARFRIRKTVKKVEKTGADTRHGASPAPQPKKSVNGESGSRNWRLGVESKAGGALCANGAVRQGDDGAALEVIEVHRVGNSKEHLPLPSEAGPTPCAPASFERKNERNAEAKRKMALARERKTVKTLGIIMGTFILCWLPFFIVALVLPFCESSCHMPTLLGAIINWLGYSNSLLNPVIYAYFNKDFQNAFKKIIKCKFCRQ

[13] = biological target: Death-associated protein kinase 1 (Homo sapiens) (UniProt P53355); assay: DAPK1(h) Millipore kinase panel; settings: Compound concentration 1.0 uM
[14] = biological target: Beta-3 adrenergic receptor (Homo sapiens) (UniProt P13945); settings: Compound concentration 10.0 uM
[15] = biological target: Serine/threonine-protein kinase A-Raf (Homo sapiens) (UniProt P10398); assay: A_Raf(h) Millipore kinase panel; settings: Compound concentration 1.0 uM
[16] = biological target: Tyrosine-protein kinase SYK (Homo sapiens) (UniProt P43405); assay: Syk(h) Millipore kinase panel; settings: Compound concentration 1.0 uM
[17] = biological target: 5-hydroxytryptamine receptor 2C (Homo sapiens) (UniProt P28335); settings: Compound concentration 10.0 uM
[18] = biological target: Phosphatidylinositol 4-phosphate 5-kinase type-1 alpha (Homo sapiens) (UniProt Q99755); assay: PIP5K1a(h) Millipore kinase panel; settings: Compound concentration 1.0 uM
[19] = biological target: Testis-specific serine/threonine-protein kinase 3 (Homo sapiens) (UniProt Q96PN8); assay: TSSK3(h) Millipore kinase panel; settings: Compound concentration 1.0 uM
[20] = biological target: eIF-2-alpha kinase GCN2 (Homo sapiens) (UniProt Q9P2K8); assay: GCN2(h) Millipore kinase panel; settings: Compound concentration 1.0 uM
[21] = biological target: Glucocorticoid receptor (Homo sapiens) (UniProt P04150); settings: Compound concentration 10.0 uM
[22] = biological target: Tyrosine-protein kinase ITK/TSK (Homo sapiens) (UniProt Q08881); assay: Itk(h) Millipore kinase panel; settings: Compound concentration 1.0 uM
[23] = biological target: Serine/threonine-protein kinase ULK2 (Homo sapiens) (UniProt Q8IYT8); assay: ULK2(h) Millipore kinase panel; settings: Compound concentration 1.0 uM
[24] = biological target: Eukaryotic translation initiation factor 2-alpha kinase 3 (Homo sapiens) (UniProt Q9NZJ5); assay: PEK(h) Millipore kinase panel; settings: Compound concentration 1.0 uM
[25] = biological target: Serine/threonine-protein kinase Nek2 (Homo sapiens) (UniProt P51955); assay: NEK2(h) Millipore kinase panel; settings: Compound concentration 1.0 uM
[26] = biological target: MAP kinase-activated protein kinase 5 (Homo sapiens) (UniProt Q8IW41); assay: PRAK(h) Millipore kinase panel; settings: Compound concentration 1.0 uM
Sus scrofa = species on record: Sus scrofa; assay: Inhibition of ATPase, Na+/K+, Heart at compound concentration of 10.0 uM in the Eurofins-Panlabs enzyme assay (Eurofins_assay_107710); parameters: substrate with concentration; settings: Compound concentration 10.0 uM
[27] = biological target: Ephrin type-B receptor 3 (Homo sapiens) (UniProt P54753); assay: EphB3(h) Millipore kinase panel; settings: Compound concentration 1.0 uM
[28] = biological target: B2 bradykinin receptor (Homo sapiens) (UniProt P30411); settings: Compound concentration 10.0 uM
[29] = biological target: Serine/threonine-protein kinase Sgk3 (Homo sapiens) (UniProt Q96BR1); assay: SGK3(h) Millipore kinase panel; settings: Compound concentration 1.0 uM
[30] = biological target: Calcium/calmodulin-dependent protein kinase type II subunit beta (Homo sapiens) (UniProt Q13554); assay: CaMKIIbeta(h) Millipore kinase panel; settings: Compound concentration 1.0 uM
[31] = biological target: Glycogen synthase kinase-3 alpha (Homo sapiens) (UniProt P49840); assay: GSK3alpha(h Millipore kinase panel; settings: Compound concentration 1.0 uM
[32] = biological target: Histamine H4 receptor (Homo sapiens) (UniProt Q9H3N8); settings: Compound concentration 10.0 uM
[33] = biological target: Muscarinic acetylcholine receptor M2 (Homo sapiens) (UniProt P08172); settings: Compound concentration 10.0 uM
[34] = biological target: Non-receptor tyrosine-protein kinase TYK2 (Homo sapiens) (UniProt P29597); assay: TYK2(h) Millipore kinase panel; settings: Compound concentration 1.0 uM

Measured: inhibition

Chain of 5-hydroxytryptamine receptor 2A (Homo sapiens) (P28223 whole entry): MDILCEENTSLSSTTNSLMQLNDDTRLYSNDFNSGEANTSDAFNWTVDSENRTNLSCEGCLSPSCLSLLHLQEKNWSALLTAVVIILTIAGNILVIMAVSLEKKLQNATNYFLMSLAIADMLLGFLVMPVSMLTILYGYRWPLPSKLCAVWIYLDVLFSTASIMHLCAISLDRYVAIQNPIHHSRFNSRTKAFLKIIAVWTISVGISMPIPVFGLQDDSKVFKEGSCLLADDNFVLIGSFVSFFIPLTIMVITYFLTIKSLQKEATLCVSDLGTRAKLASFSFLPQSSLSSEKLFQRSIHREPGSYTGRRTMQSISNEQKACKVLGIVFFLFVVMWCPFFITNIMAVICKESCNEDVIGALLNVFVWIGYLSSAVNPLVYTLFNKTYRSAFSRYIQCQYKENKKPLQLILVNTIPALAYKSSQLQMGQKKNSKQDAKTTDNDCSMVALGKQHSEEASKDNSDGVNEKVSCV
Chain of Serine/threonine-protein kinase Sgk3 (Homo sapiens) (Q96BR1 whole entry): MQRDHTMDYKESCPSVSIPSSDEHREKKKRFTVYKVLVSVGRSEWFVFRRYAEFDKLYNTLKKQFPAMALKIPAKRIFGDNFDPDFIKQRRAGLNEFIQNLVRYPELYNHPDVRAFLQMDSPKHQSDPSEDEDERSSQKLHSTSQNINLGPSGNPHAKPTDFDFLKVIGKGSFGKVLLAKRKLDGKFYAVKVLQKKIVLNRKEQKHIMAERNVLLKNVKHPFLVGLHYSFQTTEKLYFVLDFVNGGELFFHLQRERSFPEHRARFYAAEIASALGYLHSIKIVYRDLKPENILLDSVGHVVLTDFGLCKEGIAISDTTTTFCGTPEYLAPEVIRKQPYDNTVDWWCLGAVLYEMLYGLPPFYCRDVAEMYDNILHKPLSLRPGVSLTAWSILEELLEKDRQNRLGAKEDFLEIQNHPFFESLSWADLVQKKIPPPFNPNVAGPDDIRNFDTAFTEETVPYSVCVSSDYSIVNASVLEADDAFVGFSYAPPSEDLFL
Chain of Non-receptor tyrosine-protein kinase TYK2 (Homo sapiens) (P29597 whole entry): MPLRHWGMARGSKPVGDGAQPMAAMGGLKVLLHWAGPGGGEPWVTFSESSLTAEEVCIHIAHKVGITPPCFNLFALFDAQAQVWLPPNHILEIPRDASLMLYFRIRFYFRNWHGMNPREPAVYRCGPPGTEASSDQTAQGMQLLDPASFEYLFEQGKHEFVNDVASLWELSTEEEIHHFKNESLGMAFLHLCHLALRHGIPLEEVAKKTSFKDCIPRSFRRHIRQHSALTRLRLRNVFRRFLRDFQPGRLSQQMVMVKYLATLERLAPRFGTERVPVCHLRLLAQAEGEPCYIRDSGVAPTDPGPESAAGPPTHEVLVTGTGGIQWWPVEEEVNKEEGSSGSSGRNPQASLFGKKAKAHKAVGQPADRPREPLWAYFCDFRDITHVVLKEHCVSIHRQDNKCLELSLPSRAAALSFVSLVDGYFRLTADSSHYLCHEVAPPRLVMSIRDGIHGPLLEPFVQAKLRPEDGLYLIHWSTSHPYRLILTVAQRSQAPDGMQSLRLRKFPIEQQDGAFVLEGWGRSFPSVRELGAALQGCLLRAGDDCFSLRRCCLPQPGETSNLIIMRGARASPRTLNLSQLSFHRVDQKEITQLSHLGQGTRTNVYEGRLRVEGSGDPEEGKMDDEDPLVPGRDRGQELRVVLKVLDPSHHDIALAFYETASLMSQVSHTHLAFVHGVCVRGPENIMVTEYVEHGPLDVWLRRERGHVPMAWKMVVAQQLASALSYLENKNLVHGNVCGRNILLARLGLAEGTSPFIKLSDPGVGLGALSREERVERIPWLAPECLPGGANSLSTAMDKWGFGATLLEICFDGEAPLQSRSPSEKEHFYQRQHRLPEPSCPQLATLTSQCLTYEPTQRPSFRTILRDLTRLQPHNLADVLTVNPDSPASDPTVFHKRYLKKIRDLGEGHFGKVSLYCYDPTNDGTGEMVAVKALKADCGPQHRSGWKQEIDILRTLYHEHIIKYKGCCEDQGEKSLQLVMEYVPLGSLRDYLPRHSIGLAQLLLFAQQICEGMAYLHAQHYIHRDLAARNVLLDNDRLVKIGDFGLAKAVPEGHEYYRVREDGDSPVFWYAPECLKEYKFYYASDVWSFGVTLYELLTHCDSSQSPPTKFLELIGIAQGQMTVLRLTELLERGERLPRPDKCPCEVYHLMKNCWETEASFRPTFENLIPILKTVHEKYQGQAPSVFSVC
Chain of Testis-specific serine/threonine-protein kinase 3 (Homo sapiens) (Q96PN8 whole entry): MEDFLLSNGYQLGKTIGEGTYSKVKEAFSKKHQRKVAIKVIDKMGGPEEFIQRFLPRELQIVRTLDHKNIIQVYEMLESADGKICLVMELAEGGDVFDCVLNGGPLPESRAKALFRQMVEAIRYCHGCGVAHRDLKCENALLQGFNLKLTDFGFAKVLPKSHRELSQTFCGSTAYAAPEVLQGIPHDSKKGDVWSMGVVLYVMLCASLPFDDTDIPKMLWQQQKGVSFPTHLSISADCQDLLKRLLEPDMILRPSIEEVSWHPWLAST
Chain of Ephrin type-B receptor 3 (Homo sapiens) (P54753 whole entry): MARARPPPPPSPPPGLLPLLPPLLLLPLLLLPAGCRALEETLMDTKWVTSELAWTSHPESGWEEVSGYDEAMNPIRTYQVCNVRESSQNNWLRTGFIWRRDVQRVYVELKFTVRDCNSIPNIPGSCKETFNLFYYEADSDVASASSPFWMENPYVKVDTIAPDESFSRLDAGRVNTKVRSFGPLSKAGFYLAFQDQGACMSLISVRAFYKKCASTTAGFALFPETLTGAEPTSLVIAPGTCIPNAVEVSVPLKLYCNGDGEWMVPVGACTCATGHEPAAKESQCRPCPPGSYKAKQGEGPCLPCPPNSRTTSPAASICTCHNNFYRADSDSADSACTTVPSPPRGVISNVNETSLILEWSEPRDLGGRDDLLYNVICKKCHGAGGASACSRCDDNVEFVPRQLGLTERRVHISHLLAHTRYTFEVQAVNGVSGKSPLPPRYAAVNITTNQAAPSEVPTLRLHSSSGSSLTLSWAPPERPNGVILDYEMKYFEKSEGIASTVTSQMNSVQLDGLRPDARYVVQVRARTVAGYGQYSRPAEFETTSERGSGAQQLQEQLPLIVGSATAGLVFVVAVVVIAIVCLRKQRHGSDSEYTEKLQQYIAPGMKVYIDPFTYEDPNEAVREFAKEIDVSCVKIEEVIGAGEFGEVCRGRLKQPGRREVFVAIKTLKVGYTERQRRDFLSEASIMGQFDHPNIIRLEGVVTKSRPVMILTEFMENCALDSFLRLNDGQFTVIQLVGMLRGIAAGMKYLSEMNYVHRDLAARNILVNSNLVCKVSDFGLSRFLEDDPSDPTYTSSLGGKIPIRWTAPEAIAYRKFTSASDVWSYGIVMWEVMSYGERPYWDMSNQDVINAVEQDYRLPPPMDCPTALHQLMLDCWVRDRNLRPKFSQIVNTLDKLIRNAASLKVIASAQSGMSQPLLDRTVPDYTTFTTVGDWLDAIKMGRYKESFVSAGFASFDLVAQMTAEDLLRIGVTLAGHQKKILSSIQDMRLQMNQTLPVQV
Chain of Beta-3 adrenergic receptor (Homo sapiens) (P13945 whole entry, looked up): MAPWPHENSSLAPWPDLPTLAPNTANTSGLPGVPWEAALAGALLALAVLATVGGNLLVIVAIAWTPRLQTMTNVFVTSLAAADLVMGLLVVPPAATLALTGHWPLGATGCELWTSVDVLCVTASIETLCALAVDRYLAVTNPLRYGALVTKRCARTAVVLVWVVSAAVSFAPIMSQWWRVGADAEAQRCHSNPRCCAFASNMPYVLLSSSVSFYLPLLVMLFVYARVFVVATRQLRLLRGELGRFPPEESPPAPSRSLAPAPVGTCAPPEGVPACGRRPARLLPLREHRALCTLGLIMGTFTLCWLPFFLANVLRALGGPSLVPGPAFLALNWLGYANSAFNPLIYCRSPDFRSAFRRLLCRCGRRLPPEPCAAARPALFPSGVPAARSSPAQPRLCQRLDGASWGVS
Chain of LIM domain kinase 2 (Homo sapiens) (P53671 whole entry, looked up, the tested form may be a part): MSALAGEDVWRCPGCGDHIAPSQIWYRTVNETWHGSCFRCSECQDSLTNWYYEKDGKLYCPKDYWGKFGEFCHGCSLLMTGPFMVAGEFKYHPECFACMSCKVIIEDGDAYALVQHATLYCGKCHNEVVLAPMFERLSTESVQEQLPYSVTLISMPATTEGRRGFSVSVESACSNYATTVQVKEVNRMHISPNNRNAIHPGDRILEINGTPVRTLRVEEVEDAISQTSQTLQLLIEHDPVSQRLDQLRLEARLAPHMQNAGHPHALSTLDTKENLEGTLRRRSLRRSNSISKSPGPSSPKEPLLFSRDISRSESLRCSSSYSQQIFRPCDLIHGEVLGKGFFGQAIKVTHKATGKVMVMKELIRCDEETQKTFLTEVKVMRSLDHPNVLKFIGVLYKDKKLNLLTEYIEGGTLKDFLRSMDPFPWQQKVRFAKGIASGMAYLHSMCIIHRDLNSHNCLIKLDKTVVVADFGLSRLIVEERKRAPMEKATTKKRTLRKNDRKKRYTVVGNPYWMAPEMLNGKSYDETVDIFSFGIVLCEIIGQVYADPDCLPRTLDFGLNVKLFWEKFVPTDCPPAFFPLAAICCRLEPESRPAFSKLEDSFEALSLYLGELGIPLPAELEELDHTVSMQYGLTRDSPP
Chain of Glycogen synthase kinase-3 alpha (Homo sapiens) (P49840 2-483 limits assumed): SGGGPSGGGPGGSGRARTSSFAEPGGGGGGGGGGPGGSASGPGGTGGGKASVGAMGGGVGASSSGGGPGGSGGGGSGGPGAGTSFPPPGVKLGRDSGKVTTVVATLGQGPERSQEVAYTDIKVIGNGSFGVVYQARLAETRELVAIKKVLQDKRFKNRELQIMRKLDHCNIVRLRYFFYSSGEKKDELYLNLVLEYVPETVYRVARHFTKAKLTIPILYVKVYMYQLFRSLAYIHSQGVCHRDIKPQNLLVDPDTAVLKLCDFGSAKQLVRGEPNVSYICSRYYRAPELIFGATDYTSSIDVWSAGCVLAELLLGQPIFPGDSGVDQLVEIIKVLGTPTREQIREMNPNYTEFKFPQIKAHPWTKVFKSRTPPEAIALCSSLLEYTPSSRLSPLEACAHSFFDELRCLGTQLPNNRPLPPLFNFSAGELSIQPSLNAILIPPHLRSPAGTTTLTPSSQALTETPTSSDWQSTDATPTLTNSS

CC[C@@H](Nc1c(C#N)c(-c2ccc(-c3cccc(C)c3F)cc2)nc2cnccc12)C(=O)O [BAY-091]
inactive: [1] 19% | [2] 4.13% | Homo sapiens 3.59% | [3] 18.1% | [4] -6.87% | [5] 5.05% | [6] 6.73% | [7] -6.17% | [8] 2.75% | [9] 10% | [10] 3.03% | [11] 0.08% | [12] -4.91% | [13] -3.29% | [14] 16% | [15] 2.41% | [16] 10.4% | [17] 29% | [18] 10% | [19] 8.88% | [20] -3.21% | [21] 32% | [22] 9.18% | [23] 5.46% | [24] 3.26% | [25] 15.9% | [26] 23.6% | Sus scrofa 20% | [27] -5.61% | [28] 1% | [29] 6.09% | [30] 8.65% | [31] 5.47% | [32] 15.8% | [33] 8% | [34] 1.22%
